{"source": "patent US8440623B2", "about": "“Polymer stabilized neuropeptides” (Nektar Therapeutics, priority 1999, dated 2013)", "key": {"[1]": {"assay": "Enzymatic stability in blood plasma", "assay_type": "in vitro ADME", "source_text": "(§1) The major contribution is that PEGylation improved brain and blood enzymatic stability dramatically. […] After PEGylation, those half-lives increased to hours for endomorphin II."}, "rat brain": {"tested_on": "rat brain", "assay": "In situ rat brain perfusion (brain uptake)", "details": "radiolabeled compound", "method": "The protocol for the rat brain perfusion experiments was approved by the Institutional Animal Care and Use Committee at the University of Arizona. The in situ perfusion, capillary depletion, brain extract and protein binding studies were carried out as previously reported (Williams et al., J. Neurochem., 66 (3), pp 1289-1299, 1996).\nThe protocol for the rat brain perfusion experiments was approved by the Institutional Animal Care and Use Committee at the University of Arizona. The in situ perfusion studies were carried out as previously reported (Williams et al., J. Neurochem., 66 (3), pp 1289-1299, 1996)."}, "[2]": {"assay": "Enzymatic stability in brain tissue", "assay_type": "in vitro ADME", "source_text": "as §1"}, "male ICR mice": {"tested_on": "male ICR mice", "assay": "Analgesia assay (radiant heat tail flick), mice", "assay_type": "in vivo, mouse", "details": "intravenous, FIG. 3", "method": "Male ICR mice (20-25 g) or male Sprague-Dawley rats (250-300 g) (Harlan Sprague-Dawley Inc., Indianapolis, Ind.) were used for these experiments. Animals were housed four per cage in an animal care facility maintained at 22±0.5° C. with an alternating 12 hr light-dark cycle. Food and water were available ad libitum. Animals were used only once.\nAll drugs were dissolved in sterile saline and were prepared so that the proper dose would be delivered in 5 μl (i.c.v.), 100 μl (i.v.), 100 μl (s.c.) and 100 μl (i.m.) of the vehicle. All rodents were recorded for baseline latency before injection of the drug. A morphine control was used with the i.c.v. and i.v. injection procedures to compare the analgesic efficacies of test compounds. […]\nThe rodents were placed into restraint holders and their tails were properly placed under the radiant heat beam. The beam was turned on and the time until the animal flicked their tail from under the beam was recorded at each time point. […]\nThe raw data (recorded times) was converted to a percentage of the maximum possible effect (% M.P.E.) which was determined as 15 seconds. % M.P.E. was determined by the following equation: % M.P.E.=(Recorded time−Baseline)/(15−Baseline)×100\nThese percentages then allow the compound to be plotted according to % M.P.E. vs. Time. The curve can then be analyzed to determine the area under the curve (AUC)."}}, "data": [{"compound": "H-Tyr-Gly-Gly-Phe-Leu-Arg-Arg-Ile-Arg-Pro-Lys-NH2 (H-YGGFLRRIRPK-NH2) [dynorphin]", "values": [{"measurement": "half-lives in either brain or blood (in words)", "setting": "[1]", "result": "on the order of minutes"}]}, {"compound": "Tyr-D-Pen-Gly-Phe-D-Pen [I^125 DPDPE]", "values": [{"measurement": "in situ uptake RBr value", "setting": "rat brain", "result": "3.54±0.30"}]}, {"compound": "NC(=O)[C@H](Cc1ccccc1)NC(=O)[C@H](Cc1ccccc1)NC(=O)[C@@H]1CCCN1C(=O)[C@@H](N)Cc1ccc(O)cc1", "note": "[endomorphin II, H-Tyr-Pro-Phe-Phe-NH2]", "values": [{"measurement": "half-life", "setting": "[2]", "result": 13, "unit": "min"}, {"measurement": "half-life", "setting": "[1]; blood plasma", "result": 3.2, "unit": "min"}, {"measurement": "half-lives in either brain or blood (in words)", "setting": "[1]", "result": "on the order of minutes"}]}, {"compound": "C[C@@H](NC(=O)[C@@H](N)Cc1ccc(O)cc1)C(=O)NCC(=O)N[C@@H](Cc1ccccc1)C(=O)NNC(=O)[C@H](Cc1ccccc1)NC(=O)CNC(=O)[C@@H](C)NC(=O)[C@@H](N)Cc1ccc(O)cc1", "note": "[native biphalin, (H-Tyr-D-Ala-Gly-Phe-NH—)2]", "values": [{"measurement": "in situ uptake RBr value", "setting": "rat brain", "result": "7.26±0.11"}, {"measurement": "time mark at which 50% M.P.E. is seen", "setting": "male ICR mice", "result": 90, "unit": "min"}]}]}
